Measured values: ChEMBL document CHEMBL1128290, “Opioid receptor binding requirements for the delta-selective peptide deltorphin. I: Phe3 replacement with ring-substituted and heterocyclic amino acids” (J Med Chem, 1995)
Square brackets hold non-standard residues; d marks the D form. Peptide text beside a SMILES is read from it. Ala(4-thiazolyl) = N[C@@H](Cc1cscn1)C(=O)O; 2Pal = N[C@@H](Cc1ccccn1)C(=O)O; 3Pal = N[C@@H](Cc1cccnc1)C(=O)O; 2Thi = N[C@@H](Cc1cccs1)C(=O)O

Tests used:
Mu-type opioid receptor = Mu-type opioid receptor (Cavia porcellus, UniProt P97266); experiment: Inhibition of [3H]DAMGO binding to Opioid receptor mu 1 of guinea pig brain
[1] = molecular target: Kappa-type opioid receptor (Cavia porcellus, UniProt P41144); experiment: Inhibition of [3H]- U 69593 from Opioid receptor kappa 1 of guinea pig brain
Sequence of Kappa-type opioid receptor (P41144 whole entry): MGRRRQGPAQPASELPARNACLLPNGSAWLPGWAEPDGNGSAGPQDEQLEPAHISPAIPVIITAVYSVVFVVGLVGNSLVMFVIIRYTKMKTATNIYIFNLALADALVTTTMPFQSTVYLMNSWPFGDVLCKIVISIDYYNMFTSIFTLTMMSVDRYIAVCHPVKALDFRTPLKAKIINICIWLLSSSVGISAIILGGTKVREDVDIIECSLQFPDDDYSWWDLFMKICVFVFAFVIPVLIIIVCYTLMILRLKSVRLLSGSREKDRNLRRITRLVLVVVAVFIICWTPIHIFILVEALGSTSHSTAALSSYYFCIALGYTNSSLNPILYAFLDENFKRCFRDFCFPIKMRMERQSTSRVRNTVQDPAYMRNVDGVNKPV

Sequence of Mu-type opioid receptor (P97266 whole entry): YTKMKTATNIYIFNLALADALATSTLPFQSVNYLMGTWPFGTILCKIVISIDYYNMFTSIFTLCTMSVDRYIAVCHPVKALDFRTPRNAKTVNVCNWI

Row | Compound | Ki (Mu-type opioid receptor) [µM] | Ki [1] [µM]
1 | CC(C)[C@H](NC(=O)[C@H](CC(=O)O)NC(=O)[C@H](Cc1ccc(F)cc1)NC(=O)[C@H](C)NC(=O)[C@@H](N)Cc1ccc(O)cc1)C(=O)N[C@H](C(=O)NCC(N)=O)C(C)C | 10 | > 10
2 | Cc1c(C)c(C)c(C[C@H](NC(=O)[C@H](C)NC(=O)[C@@H](N)Cc2ccc(O)cc2)C(=O)N[C@@H](CC(=O)O)C(=O)N[C@H](C(=O)N[C@H](C(=O)NCC(N)=O)C(C)C)C(C)C)c(C)c1C (stereo in doubt; 5b) | > 10 | > 10
3 | Cc1ccc(C[C@H](NC(=O)[C@H](C)NC(=O)[C@@H](N)Cc2ccc(O)cc2)C(=O)N[C@@H](CC(=O)O)C(=O)N[C@H](C(=O)N[C@H](C(=O)NCC(N)=O)C(C)C)C(C)C)cc1 | > 10 | > 10
4 | CC(NC(=O)[C@@H](N)Cc1ccc(O)cc1)C(=O)N[C@@H](Cc1ccccc1)C(=O)N[C@@H](CC(=O)O)C(=O)N[C@H](C(=O)N[C@H](C(=O)NCC(N)=O)C(C)C)C(C)C (single isomer, unassigned) [DELTORPHIN C] | 0.677 | > 10
5 | CC(C)[C@H](NC(=O)[C@H](CC(=O)O)NC(=O)[C@H](Cc1cccnc1)NC(=O)[C@H](C)NC(=O)[C@@H](N)Cc1ccc(O)cc1)C(=O)N[C@H](C(=O)NCC(N)=O)C(C)C (H-YA[3Pal]DVVG-NH2) | 10 | > 10
6 | CC(C)[C@H](NC(=O)[C@H](CC(=O)O)NC(=O)[C@H](Cc1cccs1)NC(=O)[C@H](C)NC(=O)[C@@H](N)Cc1ccc(O)cc1)C(=O)N[C@H](C(=O)NCC(N)=O)C(C)C (H-YA[2Thi]DVVG-NH2) | 0.419 | > 10
7 | CC(C)[C@H](NC(=O)[C@H](CC(=O)O)NC(=O)[C@H](Cc1cccc(F)c1)NC(=O)[C@H](C)NC(=O)[C@@H](N)Cc1ccc(O)cc1)C(=O)N[C@H](C(=O)NCC(N)=O)C(C)C (stereo in doubt; 2a) | 0.411 | > 10
8 | Cc1c(C)c(C)c(C[C@H](NC(=O)[C@H](C)NC(=O)[C@@H](N)Cc2ccc(O)cc2)C(=O)N[C@@H](CC(=O)O)C(=O)N[C@H](C(=O)N[C@H](C(=O)NCC(N)=O)C(C)C)C(C)C)c(C)c1C (stereo in doubt; 5a) | > 10 | > 10
9 | CC(C)[C@H](NC(=O)[C@H](CC(=O)O)NC(=O)[C@H](Cc1cscn1)NC(=O)[C@H](C)NC(=O)[C@@H](N)Cc1ccc(O)cc1)C(=O)N[C@H](C(=O)NCC(N)=O)C(C)C (H-YA[Ala(4-thiazolyl)]DVVG-NH2) | 2.8 | > 10
10 | CC(C)[C@H](NC(=O)[C@H](CC(=O)O)NC(=O)[C@H](Cc1c(F)c(F)c(F)c(F)c1F)NC(=O)[C@H](C)NC(=O)[C@@H](N)Cc1ccc(O)cc1)C(=O)N[C@H](C(=O)NCC(N)=O)C(C)C | > 10 | > 10
11 | H-YAHDVVG-NH2 | > 10 | > 10
12 | CC(C)[C@H](NC(=O)[C@H](CC(=O)O)NC(=O)[C@H](Cc1ccccn1)NC(=O)[C@H](C)NC(=O)[C@@H](N)Cc1ccc(O)cc1)C(=O)N[C@H](C(=O)NCC(N)=O)C(C)C (H-YA[2Pal]DVVG-NH2) | 2.93 | > 10
13 | CC(C)[C@H](NC(=O)[C@H](CC(=O)O)NC(=O)[C@H](Cc1cccc(F)c1)NC(=O)[C@H](C)NC(=O)[C@@H](N)Cc1ccc(O)cc1)C(=O)N[C@H](C(=O)NCC(N)=O)C(C)C (stereo in doubt; 2b) | 3.48 | > 10
